Tested on: bladder pressure and salivation
Assay: In vivo experiments using anesthetized rabbit (carbachol challenge)
Settings: carbachol 1.5 ug/kg intra-arterial, from ID50 values, expressed as fold of selectivity of oxybutynin

SMILES: CC1=NCCN1CC(=O)[C@](O)(c1ccccc1)C1CCCC1 [Compound No. 85, (2R)-1-Cyclopentyl-1-hydroxy-3-(2-methyl-4,5-dihydro-imidazol-1-yl)-1-phenyl-propan-2-one]
- Selectivity for bladder pressure inhibition vs. salivation: about 2

SMILES: CN1CCC(N(C)CC(O)C(O)(c2ccccc2)C2CCCC2)CC1 (centres unmarked) [Compound No. 24, 1-Cyclopentyl-3-[methyl-(1-methyl-piperidin-4-yl)-amino]-1-phenyl-propane-1,2-diol]
- Selectivity for bladder pressure inhibition vs. salivation: about 2

From US20080280883A1, “Muscarinic Receptor Antagonists” (priority 2004, published 2008)
